Data from a melting point compilation (Tetko et al.; mined from patent text by program, amines drawn as free bases though some values may be those of a salt).

SMILES	melting point [°C]
NS(=O)(=O)c1ccc(-c2c(-c3ccccc3)noc2COCC(F)(F)C(F)(F)C(F)(F)CO)cc1	50 to 51
O=C(C=NO)Nc1ccc(F)c(F)c1	148 to 150
CCOC(=O)C1=C(C)N=C(N)N(C(=O)OCC)C1c1cccc([N+](=O)[O-])c1 (stereo not given)	166 to 168
CCOc1ccc(OCC(C)(NS(=O)(=O)Cc2ccccc2)C(=O)N(C)OC)cc1 (stereo not given)	179 to 181
ClC1(c2cccs2)CC1c1ccccc1 (stereo not given)	61 to 63
CCOCc1nc2c(N)nc3ccccc3c2n1CC1(O)CCC1	174 to 175
COc1cc(CBr)c(OC)cc1/C=C/c1cc(OC)c(CBr)cc1OC	165 to 167
CCOC(=O)CNC(=O)c1nc2ccc(NCCCN3CCC(OC(c4ccccc4)c4ccccc4)CC3)nn2c1C	158 to 160
CC1Sc2c(C(=O)O)c(=O)c3cc(F)c(N4CCC(N)C4)cc3n21 (stereo not given)	238 to 240
Cn1c(=O)[nH]c2cc3[nH]c(-c4cccnc4)nc3cc21	> 300
FC(F)(F)c1cc(N=NNc2cc(C(F)(F)F)cc(C(F)(F)F)c2)cc(C(F)(F)F)c1	137 to 138
Oc1ccc(N=Cc2ccccc2)cc1	182 to 183
Cc1cc2c3c(ccc2[nH]1)OCC(CN1CC=C(c2c[nH]c4ccccc24)CC1)O3 (stereo not given)	212 to 215
Cc1ccc(Sc2c(SCc3ccccc3)cc(C(=O)O)cc2S(=O)(=O)Cl)cc1	188 to 190
Cc1ccccc1N(CC(=O)OC(C)(C)C)C(=O)CN1C(=O)c2ccccc2C1=O	140
Oc1ccc2[nH]cc(CCCCN3CCN(c4ccc5c(c4)CCCO5)CC3)c2c1	220 to 222
Sc1nc2cc3ccccc3cc2[nH]1	303 to 305
Nc1ccc2c(-c3ccccc3)c([N+](=O)[O-])oc2c1	212 to 214
O=C(c1cc2ccccc2[nH]1)C1CSC(c2cccnc2)N1 (stereo not given)	142 to 144
COc1ccc(OC2COc3ccc(O)cc3C2O)cc1 (stereo not given)	187 to 189
Cc1c(NC(=O)c2ccc(OC[C@@H]3CCCO3)cc2F)ccc2cc(CNCC(C)C)cnc12	133 to 134
COc1ccc(C(=O)O[Si](C)(C)C)cc1	60 to 61

SMILES	melting point [°C]
O=C(O)CCc1ocnc1-c1ccccc1	142 to 143
SCC1SC(CS)SC(CS)S1 (stereo not given)	42 to 46
Oc1cc2[nH]c3ccccc3c2cc1O	279 to 283
COc1cccc2c(=O)c3c(O)cc(OCC(S)CCl)cc3oc12 (stereo not given)	125
Cc1c(C)c(C)c(S(=O)(=O)NCCc2ccc(C(=CCCCC(=O)O)c3cccnc3)cc2)c(C)c1C	158 to 160
COC(=O)CCCCc1ccc(NC(=O)N(CCO)C2CCN(Cc3ccccc3)CC2)cc1	118 to 120
CSc1cc2c(cc1C(F)(F)F)N(C(=O)Nc1cccc(OCCCN(C)C)c1)CC2	149 to 151
CCc1ccc(SC2CCOC2=O)c(C(=O)O)c1 (stereo not given)	167 to 170
CC(C)OC(=O)c1cc(-n2c(=O)[nH]c3c(c2=O)CCC3)c(Cl)cc1Cl	186 to 189
Cc1oc(-c2ccccc2)nc1COc1ccc2c(-c3ccccc3)c(COc3nn(-c4ccccc4)cc3C=O)oc2c1	176 to 177
O=C(O)c1cccc(CC2COc3ccc(OCc4nc5cc(F)ccc5s4)cc3C2O)c1 (stereo not given)	208 to 210
O=C1c2c(Cl)cccc2-n2cnc(-c3nnco3)c2[C@@H]2CCN12	264 to 265
CC(C)(C)c1ccc(CCC(=O)CCC2CCCCCC2)cc1NC(=O)CC1c2ccccc2Oc2ccccc21	136 to 137
CC(C)(C)OC(=O)N1CCN(c2c(F)cc(N3CC(CO)OC3=O)cc2F)CC1 (stereo not given)	164 to 166
Cc1cc(F)ccc1-c1nc(NCCO)nc2c1CCC(=O)N2c1ccccc1F	120 to 124
CCC1(CCCCN2CCN(c3ccccn3)CC2)C(=O)Nc2ccc(C)cc21 (stereo not given)	168 to 170
CC#CCCn1ncc2c(N)c3c(nc21)CN(CCCC)C3=O	171 to 172
COC(=O)c1c(C(F)(F)F)noc1NS(=O)(=O)c1ccccc1	100 to 101
COc1cc2ncnc(Nc3cccc(O)c3)c2cc1OC	256 to 257
COC(=O)C1(C)Cc2c(OC)ccc(OC)c2CO1 (stereo not given)	73 to 74.5
Nc1ccc(OC(F)(F)F)cc1C(=O)O	142 to 144

Now from value to molecule:

melting point [°C]	SMILES
71 to 73	COc1ccc2cc([C@H](C)C(=O)OCC(=O)N(C)CC(=O)OCCO[N+](=O)[O-])ccc2c1
258	Cn1cncc1C(N)(c1ccc([N+](=O)[O-])cc1)c1ccc2c(c1)c(-c1cccc(Cl)c1)cc(=O)n2C (stereo not given)
204 to 209	COc1cc(OC)nc(NC(=O)NS(=O)(=O)c2cc(Br)cc3c2OS(=O)(=O)C=C3)n1
200	O=C(OC1CCC1)c1ccc(O)c(C(=O)O)c1
156	CCCCC(=N)NC(=O)Nc1ccccc1
150	CC(C)C(NC(=O)c1ccccc1)C(O)C(F)(F)F (stereo not given)
178	CC(C)(C)OC(=O)CCc1cc(S(C)(=O)=O)cc(-c2nc(=O)c3ccc(F)cc3s2)n1
198	CCOc1cc(CCCN2CCc3cc(OC)c(OC)cc3C2)ccc1NC(=O)c1cccc2c(=O)c3cccc(OC)c3[nH]c12
215 to 216	Cc1nc2c(N)nc3ccccc3c2n1CCCCNS(=O)(=O)c1ccccc1
70 to 73	COc1ccc(ONc2ccccc2)cc1
78 to 79	CC(C)=CCn1c(C)cnc1[N+](=O)[O-]
146 to 148	CC(C)(C)OC(=O)NC1C=Cc2ccccc2CC1 (stereo not given)
155 to 157	CNc1ncc(-c2cc(Cl)cc(Cl)c2Cl)c(N)n1
195 to 198	CC(C)c1ccc2c(c1)OC1(O)c3ccccc3C(=O)C21O (stereo not given)
227 to 231	N#CNC1=NC(c2ccc(OC(F)(F)F)cc2)(c2cccc(-c3cncnc3)c2)C2=NCCCN12 (stereo not given)
78 to 80	CCCCCCCN(CCCCCSc1nc(-c2ccccc2)c(-c2ccccc2)[nH]1)C(=O)NCCC
119 to 120	CNS(=O)(=O)c1cc(C(=O)NNC(=O)c2occ(-c3ccccc3)c2-c2ccccc2)ccc1O
121 to 122	CNC1Cc2ccccc2C1Nc1ccccc1 (stereo not given)
191 to 193	Cc1cc(OCCCNCCC(N)=O)ccc1Cc1c(OC2OC(CO)C(O)C(O)C2O)n[nH]c1C(C)C (stereo not given)
256 to 257	COC(=O)c1ccc(N)c(C(=O)C(=O)OC(=O)C(=O)c2cc(C(=O)OC)ccc2N)c1
216	COc1cc2c(-c3cc4cccnc4[nH]3)cn(C)c2cc1OC(C)C
260 to 261	CNCc1c(C)c([N+](=O)[O-])cc2[nH]c(=O)c(=O)[nH]c12
232 to 233	O=C1CCC(=NNc2ccc(F)cc2)c2ncccc2N1
181 to 185	COc1ccc(Nc2ccc(Nc3nc(C)nc4cc(-c5ccccc5)sc34)cc2)cc1
142 to 143	O=C(O)/C=C/C=C(c1cccc(F)c1)c1cccc(F)c1
55	COc1cc(N)c(CCN2CCN(c3nsc4ccccc34)CC2)cc1OC
233	Cc1ccc(S(=O)(=O)c2ccc(C(F)(F)F)cc2NC(=O)N[C@@H](Cc2ccc(NC(=O)c3c(Cl)cccc3Cl)cc2)C(=O)O)cc1
